{
  "source": "patent US7662784B2",
  "about": "“Method for decreasing body weight using a somatostatin receptor agonist” (Ipsen Pharma, S.A.S., priority 1997, dated 2010)",
  "key": {"[1]": {"tested_on": "Obese (fa/fa) Zucker rats", "assay": "Secondary endpoints: plasma glycerol and triglycerides after 6-day treatment, oral glucose challenge", "type": "in vivo, rat", "procedure": "Obese (fa/fa) Zucker rats were treated as in example 1 above. On the last day of treatment (day 6), food was removed at 5:00 p.m., and the rats were fasted overnight. At 9:00 a.m. the next day, the animals were subjected to a glucose challenge, given as 0.8 gram/kg of glucose orally. Periodic 400 μl of blood samples were taken from the tail vein (Peterson, R. G., ILAR News, 32:16-19 (1990)) 60 min. and 30 min. before and at 30, 60, 90, and 120 min. after the administration of the glucose challenge (0.8 gram/kg orally). Aprotinin (Traysylol, Bayer UK, Hayward's Health, W. Sussex, U.K. and heparin (Sigma Chemical Co., Poole, Dorset, U.K.) were added to the blood samples to a final concentration of 400 KIU/ml and 100 units/ml, respectively. Plasma fractions were prepared from these samples by centrifugation at 4000×G in a microfuge, for the estimation of triglycerides and glycerol. Samples were then stored at −80° C. until assayed.\nPlasma glycerol and triglycerides were determined using the Sigma Enzymatic (Tinder) calorimetric assay kit (Cat #337-B, Sigma Chemical Co., Poole, Dorset, U.K.) and measuring absorbance at 540 nm in a spectrophotometer."}, "[2]": {"tested_on": "fatty (fa/fa) Zucker rats", "assay": "Weight loss study, chronic (6 day) treatment in obese animal model"}, "[3]": {"conditions": "after six days at 3 mg/kg s.c. twice a day, samples 30 and 60 minutes before the oral glucose challenge"}, "[4]": {"conditions": "throughout the 2-hour test period after oral glucose challenge (0.8 gram/kg)"}, "[5]": {"conditions": "3 mg/kg s.c. twice a day for six days, fatty Zucker rats"}},
  "note": "Bridge positions count the residues as written; N and C are the ends. Square brackets hold non-standard residues; d marks the D form. Peptide text beside a SMILES is read from it.",
  "data": [
    {"smiles": "C[C@@H](O)[C@@H]1NC(=O)[C@H](CCCCN)NC(=O)[C@@H](Cc2c[nH]c3ccccc23)NC(=O)[C@H](Cc2ccccc2)NC(=O)[C@H](Cc2ccccc2)NC(=O)[C@@H](N)CSSC[C@@H](C(N)=O)NC(=O)[C@H](Cc2ccccc2)NC1=O", "note": "[BIM-23268, H-Cys-Phe-Phe-D-Trp-Lys-Thr-Phe-Cys-NH2] (H-CFF[dW]KTFC-NH2; disulfide 1-8)", "values": [
      {"measurement": "reducing hypertriglyceridemia", "setting": "[1]; 6-day treatment period at the prescribed dose (3 mg/kg s.c. twice a day)", "value": "effective in reducing hypertriglyceridemia"},
      {"measurement": "plasma glycerol", "setting": "[1]; [3]", "value": "significantly lowered"},
      {"measurement": "plasma triglycerides", "setting": "[1]; [3]", "value": "significantly lowered"},
      {"measurement": "plasma glycerol", "setting": "[1]; [4]", "value": "significantly lower"},
      {"measurement": "plasma triglycerides", "setting": "[1]; [4]", "value": "significantly lower"},
      {"measurement": "amount of food consumed over the entire treatment period versus control", "setting": "[2]; 3 mg/kg s.c. twice a day for six days", "value": "no difference"},
      {"measurement": "body weight gain versus control", "setting": "[2]; [5]", "value": "lower"},
      {"measurement": "toxic effect / appearance of treated group", "setting": "[2]; [5]", "value": "appeared healthy"},
      {"measurement": "average food consumption", "setting": "[2]; 3 mg/kg s.c. twice a day, 6-day treatment, control 26.0", "value": 25.9, "unit": "g/rat/day"},
      {"measurement": "treated group's mean weight after six days", "setting": "[2]; male fatty Zucker rats, 3 mg/kg s.c. twice a day for six days, control 418.89", "value": 413.6},
      {"measurement": "treated group's mean weight at the start of the trial", "setting": "[2]; male fatty Zucker rats, before 3 mg/kg s.c. twice a day, control 414.09", "value": 413.6}
    ]}
  ]
}
